Assay results reported in patent publication US9989543B2, “Composition, device, and method for detecting olmesartan and improving compliance in treating hypertension” (Autotelic LLC, priority 2016, dated 2018).
Read-outs that look alike come from different tables or passages of the source.

Legend:
[1] = Olmesartan blood concentration/AUC after 7-day versus single-day dosing; assay type: in vivo, Korean healthy males
[2] = as above; assay type: in vivo, Korean healthy males; conditions: for % Reduction: Compliance-7X vs Non-Compliance-1X
Protocol: Drug exposure as AUC was studied among Korean healthy males aged between 20 and 50 years in two clinical studies: (1) taking drug regularly for 7 days (subjects were administered either 1 tablet of 40 mg olmesartan medoxomil, 1 tablet of 20 mg rosuvastatin calcium, or 1 tablet each of both agents orally every 24 hours for 7 days) and (2) taking drug only one day (58 subjects divided into 2 cohorts and treated over 2 periods; one tablet of ST-101 (FDC olmesartan and rosuvastatin) tablet of 40 mg olmesartan medoxomil/20 mg rosuvastatin calcium was administered once orally as the test drug, or 1 tablet each of 40 mg olmesartan medoxomil and 20 mg rosuvastatin calcium was co-administered once orally as the comparator). Pharmacokinetic analyses were performed. For PK analyses, blood samples were collected at 0 (pre-dose), 0.5, 2, 2.5, 3, 4, 5, 6, 7, 8, 10, 12, 16, 24, and 48 hr after dosing of olmesartan either as FDC or as single agent. The results are graphically illustrated in FIG. 1. FIG. 1 compares olmesartan AUC (area-under-the-curve) for subjects taking olmesartan regularly for 7 days (Multiple Dosing ×7, solid circles) and for subjects taking olmesartan only 1 day (Single Dosing ×1, open circles): mean+/−95% confidence interval (CI) for subjects taking olmesartan regularly for 7 days. […] The differences between compliance and non-compliance across a 24 hr period were determined (see Table 1). The % reduction in blood concentration can be used to determine if the patient is missing his/her medication. […] There is about 40 ng/mL remaining at 24 hr, which accumulated to about 60 ng/mL following consistently medication for 7 days. The comparison between full compliance for 7 days versus noncompliance is tabulated below.

[3] = highest dose, olmesartan at 40 mg/day; cited from earlier work

Compound: CCCc1nc(C(C)(C)O)c(C(=O)O)n1Cc1ccc(-c2ccccc2-c2nnn[nH]2)cc1 [olmesartan]
- % Reduction ([1]; Time 1.5 hrs, Compliance-7X vs Non-Compliance-1X): 14.15%
- concentration at 1 h ([1]; male, human, blood, oral, 40 mg, Time 1 hrs, dosing every 24 hours for 7 days, read-out: Blood concentration (ng/mL)/Compliance-7X): 858 ng/mL
- % Reduction ([2]; Time 0 hrs): Infinity
- % Reduction ([2]; Time 1 hrs): 26.84%
- % Reduction ([2]; Time 2 hrs): 12.43%
- % Reduction ([2]; Time 2.5 hrs): 13.33%
- % Reduction ([2]; Time 3 hrs): 19.97%
- % Reduction ([2]; Time 4 hrs): 19.85%
- % Reduction ([2]; Time 5 hrs): 15.71%
- % Reduction ([2]; Time 6 hrs): 20.17%
- % Reduction ([2]; Time 8 hrs): 24.95%
- % Reduction ([2]; Time 10 hrs): 30.40%
- % Reduction ([2]; Time 12 hrs): 31.90%
- % Reduction ([2]; Time 16 hrs): 40.22%
- % Reduction ([2]; Time 24 hrs): 61.33%
- concentration at 24 h ([2]; male, human, blood, oral, 40 mg, 24 hr, following consistently medication for 7 days, read-out: blood concentration remaining at 24 hr, accumulated): ~60 ng/mL
- concentration at 0 h ([2]; male, human, blood, oral, 40 mg, Time 0 hrs, dosing every 24 hours for 7 days, read-out: Blood concentration (ng/mL)/Compliance-7X): 54.1 ng/mL
- concentration at 1.5 h ([2]; male, human, blood, oral, 40 mg, dosing every 24 hours for 7 days, read-out: Blood concentration (ng/mL)/Compliance-7X): 1060 ng/mL
- concentration at 1.5 h ([2]; male, human, blood, oral, 40 mg, drug taken only one day, read-out: Blood concentration (ng/mL)/Non-Compliance-1X): 932 ng/mL
- concentration at 2 h ([2]; male, human, blood, oral, 40 mg, Time 2 hrs, dosing every 24 hours for 7 days, read-out: Blood concentration (ng/mL)/Compliance-7X): 1130 ng/mL
- concentration at 2.5 h ([2]; male, human, blood, oral, 40 mg, Time 2.5 hrs, dosing every 24 hours for 7 days, read-out: Blood concentration (ng/mL)/Compliance-7X): 1110 ng/mL
- concentration at 3 h ([2]; male, human, blood, oral, 40 mg, Time 3 hrs, dosing every 24 hours for 7 days, read-out: Blood concentration (ng/mL)/Compliance-7X): 1090 ng/mL
- concentration at 4 h ([2]; male, human, blood, oral, 40 mg, Time 4 hrs, dosing every 24 hours for 7 days, read-out: Blood concentration (ng/mL)/Compliance-7X): 911 ng/mL
- concentration at 5 h ([2]; male, human, blood, oral, 40 mg, Time 5 hrs, dosing every 24 hours for 7 days, read-out: Blood concentration (ng/mL)/Compliance-7X): 714 ng/mL
- concentration at 6 h ([2]; male, human, blood, oral, 40 mg, Time 6 hrs, dosing every 24 hours for 7 days, read-out: Blood concentration (ng/mL)/Compliance-7X): 543 ng/mL
- concentration at 8 h ([2]; male, human, blood, oral, 40 mg, Time 8 hrs, dosing every 24 hours for 7 days, read-out: Blood concentration (ng/mL)/Compliance-7X): 361 ng/mL
- concentration at 10 h ([2]; male, human, blood, oral, 40 mg, Time 10 hrs, dosing every 24 hours for 7 days, read-out: Blood concentration (ng/mL)/Compliance-7X): 263 ng/mL
- concentration at 12 h ([2]; male, human, blood, oral, 40 mg, Time 12 hrs, dosing every 24 hours for 7 days, read-out: Blood concentration (ng/mL)/Compliance-7X): 193 ng/mL
- concentration at 16 h ([2]; male, human, blood, oral, 40 mg, Time 16 hrs, dosing every 24 hours for 7 days, read-out: Blood concentration (ng/mL)/Compliance-7X): 123 ng/mL
- concentration at 24 h ([2]; male, human, blood, oral, 40 mg, Time 24 hrs, dosing every 24 hours for 7 days, read-out: Blood concentration (ng/mL)/Compliance-7X): 66.2 ng/mL
- concentration at 24 h ([2]; male, human, blood, oral, 24 hr, before accumulation, read-out: blood concentration remaining at 24 hr): ~40 ng/mL
- concentration at 0 h ([2]; male, human, blood, oral, Time 0 hrs, drug taken only one day, read-out: Blood concentration (ng/mL)/Non-Compliance-1X): 0 ng/mL
- concentration at 1 h ([2]; male, human, blood, oral, Time 1 hrs, drug taken only one day, read-out: Blood concentration (ng/mL)/Non-Compliance-1X): 677 ng/mL
- concentration at 2 h ([2]; male, human, blood, oral, Time 2 hrs, drug taken only one day, read-out: Blood concentration (ng/mL)/Non-Compliance-1X): 1000 ng/mL
- concentration at 2.5 h ([2]; male, human, blood, oral, Time 2.5 hrs, drug taken only one day, read-out: Blood concentration (ng/mL)/Non-Compliance-1X): 976 ng/mL
- concentration at 3 h ([2]; male, human, blood, oral, Time 3 hrs, drug taken only one day, read-out: Blood concentration (ng/mL)/Non-Compliance-1X): 912 ng/mL
- concentration at 4 h ([2]; male, human, blood, oral, Time 4 hrs, drug taken only one day, read-out: Blood concentration (ng/mL)/Non-Compliance-1X): 760 ng/mL
- concentration at 5 h ([2]; male, human, blood, oral, Time 5 hrs, drug taken only one day, read-out: Blood concentration (ng/mL)/Non-Compliance-1X): 617 ng/mL
- concentration at 6 h ([2]; male, human, blood, oral, Time 6 hrs, drug taken only one day, read-out: Blood concentration (ng/mL)/Non-Compliance-1X): 452 ng/mL
- concentration at 8 h ([2]; male, human, blood, oral, Time 8 hrs, drug taken only one day, read-out: Blood concentration (ng/mL)/Non-Compliance-1X): 289 ng/mL
- concentration at 10 h ([2]; male, human, blood, oral, Time 10 hrs, drug taken only one day, read-out: Blood concentration (ng/mL)/Non-Compliance-1X): 202 ng/mL
- concentration at 12 h ([2]; male, human, blood, oral, Time 12 hrs, drug taken only one day, read-out: Blood concentration (ng/mL)/Non-Compliance-1X): 146 ng/mL
- concentration at 16 h ([2]; male, human, blood, oral, Time 16 hrs, drug taken only one day, read-out: Blood concentration (ng/mL)/Non-Compliance-1X): 87.9 ng/mL
- concentration at 24 h ([2]; male, human, blood, oral, Time 24 hrs, drug taken only one day, read-out: Blood concentration (ng/mL)/Non-Compliance-1X): 41.1 ng/mL
- AUC ([2]; male, human, blood, oral, population of subjects receiving olmesartan at 40 mg/day, daily administration, read-out: median AUC (target AUC)): ~7000 ng·h/mL
- clearance ([2]; much of the drug gone from the system at 48 hr): rapid clearance
- subjects achieving target blood pressure reduction [3]: about 50%
